Values of other authors, collected in PMC9549030, “Structural basis for specific inhibition of the deubiquitinase UCHL1” (Nature Communications, 2022).

Columns and labels:
Prolyl oligopeptidase = molecular target: Prolyl oligopeptidase; parameters: method as in SI-Ref-8; details: ref SI-Ref-8; cited from earlier work
Cathepsin K = details: ref SI-Ref-7; cited from earlier work
Caspase 1 = molecular target: Caspase 1; parameters: method as in SI-Ref-5; details: ref SI-Ref-5; cited from earlier work

## N#C[C@@H]1CCCN1C(=O)[C@@H]1CCCN1C(=O)CCCc1ccccc1 [KYP-2047]
Prolyl oligopeptidase
  IC50: 3.9 nM

## CC(C)(F)C[C@H](N[C@@H](c1ccc(-c2ccc(S(C)(=O)=O)cc2)cc1)C(F)(F)F)C(=O)NC1(C#N)CC1 [Odanacatib]
Cathepsin K
  IC50: 0.2 nM

## CC(C)(C)[C@H](NC(=O)c1ccc(N)c(Cl)c1)C(=O)N1CCC[C@H]1C(=O)N[C@H](C#N)CC(=O)O [ML132]
Caspase 1
  IC50: 0.023 nM
